This is an account of results in patent US11324798B2, “Materials and methods for treatment of inflammation” (CYTOGEL PHARMA, LLC, priority 2010, dated 2022).

Several values for one entry are separate records, joined by “and”; a condition that tells them apart may be missing. Equal entries are not always repeated. Entries after “also recorded” stand apart in the source; their conditions may differ.

This assay deals with mustard oil-induced acute neurogenic inflammation in the paw skin of the rat. As to the kind of experiment: 1% mustard oil-induced plasma protein extravasation in the acutely denervated rat hindpaw skin, Evans blue leakage. It counts as in vivo. Conditions: for Evans blue leakage in the rat hindpaw skin / Evans blue leakage in the rat hindpaw skin, Mean: 1% mustard oil; for Evans blue leakage in the rat hindpaw skin: individual paws (rats 1-8, left/right). The procedure: For the in vivo rat and mouse experiments, 5.5 ml of the 1 mg/ml stock solution of CYT-1010 was prepared freshly every experimental day with 20% HPCD dissolved in sterile distilled water. […] The vehicle was 20% HPCD dissolved in sterile distilled water. Further dilutions of the compound for the smaller administered doses were made with this vehicle, the 500 μg/ml and 100 μg/ml concentrations looked opalescent and the lower concentrations were clear. In rats 0.1 ml/100 g, in mice 0.1 ml/10 g volumes were administered i.v. 10 min before the induction of the inflammation.
Both hindlegs of the rats were acutely denervated (the sciatic and the saphenous nerves were cut 30 min before the induction of inflammation) under deep sodium thiopental (50 mg/kg i.p.) anaesthesia to avoid central reflexes. Acute neurogenic inflammation in the dorsal skin of the hindpaws was evoked by topical application of 1% mustard oil (allylisothiocianante) dissolved in paraffin oil. Mustard oil in concentrations below 5% selectively stimulates TRPA1 ion channels on capsaicin-sensitive peptidergic nerves and induces the release of pro-inflammatory sensory neuropeptides such as CGRP and substance P, which cause vasodilation and plasma protein extravasation in the innervated area.
CYT-1010 (1, 10, 100 and 1000 μg/kg; 0.1 ml/100 g from the 1, 10, 100 and 1000 μg/ml solutions) was administered i.v. 5 min before the induction of the inflammation by mustard oil smearing. Rats in the control group were treated with the same volume of the vehicle, 20% hydroxypropyl-β-cyclodextrin (dissolved in sterile distilled water). The experimental protocol is also illustrated in FIG. 2.
40 male Wistar rats (220-260 g) altogether were divided into 5 experimental groups: Group 1: 8 vehicle-treated controls (n=8); Group 2: 1 μg/kg CYT-1010 (n=8); Group 3: 10 μg/kg CYT-1010 (n=8); Group 4: 100 μg/kg CYT-1010 (n=8); and Group 5: 1000 μg/kg CYT-1010 (n=8).
This study was undertaken in blocks with 10 rats per occasion. The whole set of data was obtained during 4 days, and there were rats of each group every day.
Extravasation of plasma albumin was measured by the Evans blue leakage method. Evans blue (50 mg/kg) was injected i.v. and neurogenic inflammation was induced 10 min later. Rats were killed by exsanguination 20 min after mustard oil application. The skin of the hindpaws was removed and the extravasated dye was extracted with formamide for 72 h at room temperature for photometric determination at 620 nm. The amount of the accumulated Evans blue, which quantitatively correlates with the intensity of plasma extravasation, was expressed as dye/g wet tissue (Szolcsányi and Barthó 1981; Helyes et al., 1997, 2001, 2006). Each of these publications is incorporated herein by reference in its entirety.
Results are expressed as the mean±s.e.m. and analyzed for statistical significance with one-way ANOVA followed by Dunnett post-hoc test when the data were compared to the control group. In the rat in vivo studies, multiple comparisons were also made with Bonferroni's modified t-test to compare the effects of the different doses to each other. *p<0.05 was considered to be significant.

With `NC(Cc1ccc(O)cc1)C(=O)NC1CCCCNC(=O)C(Cc2ccccc2)NC(=O)C(Cc2c[nH]c3ccccc23)NC1=O` [CYT-1010, H-Tyr-c-[D-Lys-Trp-Phe]], the “Inhibition of mustard oil-induced plasma protein extravasation” value (1 μg/kg i.v. (smallest/lowest dose)) is roughly 60%. The “Evans blue leakage in the rat hindpaw skin” value is 63.04 μg/g wet skin and 42.27 μg/g wet skin and 3.46 μg/g wet skin and 41.04 μg/g wet skin and 31.69 μg/g wet skin and 46.87 μg/g wet skin and 49.44 μg/g wet skin and 47.62 μg/g wet skin and 77.51 μg/g wet skin and 53.72 μg/g wet skin and 48.91 μg/g wet skin and 59.80 μg/g wet skin and 65.26 μg/g wet skin and 48.52 μg/g wet skin and 44.06 μg/g wet skin and 33.73 μg/g wet skin (1 μg/kg i.v.); 87.67 μg/g wet skin and 79.89 μg/g wet skin and 77.63 μg/g wet skin and 87.14 μg/g wet skin and 108.49 μg/g wet skin and 73.59 μg/g wet skin and 65.69 μg/g wet skin and 78.05 μg/g wet skin and 94.66 μg/g wet skin and 36.25 μg/g wet skin and 51.07 μg/g wet skin and 41.10 μg/g wet skin and 46.38 μg/g wet skin and 91.18 μg/g wet skin and 61.48 μg/g wet skin and 77.24 μg/g wet skin (10 μg/kg i.v.); 71.20 μg/g wet skin and 54.84 μg/g wet skin and 83.92 μg/g wet skin and 49.09 μg/g wet skin and 54.86 μg/g wet skin and 59.74 μg/g wet skin and 88.54 μg/g wet skin and 56.89 μg/g wet skin and 75.00 μg/g wet skin and 56.81 μg/g wet skin and 63.41 μg/g wet skin and 68.93 μg/g wet skin and 49.74 μg/g wet skin and 52.19 μg/g wet skin and 49.21 μg/g wet skin and 80.28 μg/g wet skin (100 μg/kg i.v.); 55.85 μg/g wet skin and 66.07 μg/g wet skin and 85.40 μg/g wet skin and 79.34 μg/g wet skin and 154.03 μg/g wet skin and 74.05 μg/g wet skin and 88.00 μg/g wet skin and 62.92 μg/g wet skin and 55.80 μg/g wet skin and 67.62 μg/g wet skin and 57.47 μg/g wet skin and 37.45 μg/g wet skin and 46.10 μg/g wet skin and 76.56 μg/g wet skin and 54.68 μg/g wet skin and 63.41 μg/g wet skin (1000 μg/kg i.v.). In addition, the “Evans blue leakage in the rat hindpaw skin, Mean” value is, setting by setting: (1 μg/kg i.v.) 47.31 μg/g wet skin; (10 μg/kg i.v.) 72.34 μg/g wet skin; (100 μg/kg i.v.) 63.42 μg/g wet skin; (1000 μg/kg i.v.) 70.30 μg/g wet skin. Further, the “Effect on mustard oil-induced plasma protein extravasation in the rat skin” value (1, 10, 100 and 1000 μg/kg i.v. pretreatment) is “significant inhibition; also recorded: significant anti-inflammatory effect; also recorded: significantly decreased”.
